According to paper PMC7026418, “The kinase polypharmacology landscape of clinical PARP inhibitors” (Scientific Reports, 2020):
Read-outs that look alike come from different tables or passages of the source. Each block holds one compound with its values, some of them ahead of it.

Key:
Assay in all cases: biochemical
Set-up in all cases: DiscoveRx KINOMEscan active site-directed competition binding; percent of control kinase bound to immobilised ligand
[1] = target: T1, ABL1(F317I)-nonphosphorylated (Homo sapiens, UniProt P00519, F317I)
T1 construct: nonphosphorylated

DYRK2 = target: T2, DYRK2 (Homo sapiens, UniProt Q92630)
T2 sequence (Q92630 1-601): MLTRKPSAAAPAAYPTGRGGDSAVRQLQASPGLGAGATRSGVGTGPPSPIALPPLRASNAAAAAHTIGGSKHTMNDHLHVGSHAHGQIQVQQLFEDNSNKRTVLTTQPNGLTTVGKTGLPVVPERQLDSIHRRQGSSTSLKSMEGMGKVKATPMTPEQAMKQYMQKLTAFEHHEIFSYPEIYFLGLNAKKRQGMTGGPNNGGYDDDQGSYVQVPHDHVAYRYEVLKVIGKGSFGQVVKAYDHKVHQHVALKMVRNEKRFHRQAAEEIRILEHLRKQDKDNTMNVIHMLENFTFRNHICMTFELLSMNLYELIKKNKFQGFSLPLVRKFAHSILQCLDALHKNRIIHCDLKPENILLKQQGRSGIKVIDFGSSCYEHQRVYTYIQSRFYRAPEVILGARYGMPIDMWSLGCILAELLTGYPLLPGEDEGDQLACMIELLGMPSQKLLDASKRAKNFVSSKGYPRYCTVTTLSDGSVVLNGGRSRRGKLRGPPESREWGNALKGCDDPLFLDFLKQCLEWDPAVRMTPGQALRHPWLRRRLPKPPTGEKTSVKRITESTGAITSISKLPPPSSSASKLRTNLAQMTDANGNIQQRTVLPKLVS

CIT = CIT (Homo sapiens, UniProt O14578)
EPHA1 = target: T3, EPHA1 (Homo sapiens, UniProt P21709)
T3 sequence (P21709 1-976): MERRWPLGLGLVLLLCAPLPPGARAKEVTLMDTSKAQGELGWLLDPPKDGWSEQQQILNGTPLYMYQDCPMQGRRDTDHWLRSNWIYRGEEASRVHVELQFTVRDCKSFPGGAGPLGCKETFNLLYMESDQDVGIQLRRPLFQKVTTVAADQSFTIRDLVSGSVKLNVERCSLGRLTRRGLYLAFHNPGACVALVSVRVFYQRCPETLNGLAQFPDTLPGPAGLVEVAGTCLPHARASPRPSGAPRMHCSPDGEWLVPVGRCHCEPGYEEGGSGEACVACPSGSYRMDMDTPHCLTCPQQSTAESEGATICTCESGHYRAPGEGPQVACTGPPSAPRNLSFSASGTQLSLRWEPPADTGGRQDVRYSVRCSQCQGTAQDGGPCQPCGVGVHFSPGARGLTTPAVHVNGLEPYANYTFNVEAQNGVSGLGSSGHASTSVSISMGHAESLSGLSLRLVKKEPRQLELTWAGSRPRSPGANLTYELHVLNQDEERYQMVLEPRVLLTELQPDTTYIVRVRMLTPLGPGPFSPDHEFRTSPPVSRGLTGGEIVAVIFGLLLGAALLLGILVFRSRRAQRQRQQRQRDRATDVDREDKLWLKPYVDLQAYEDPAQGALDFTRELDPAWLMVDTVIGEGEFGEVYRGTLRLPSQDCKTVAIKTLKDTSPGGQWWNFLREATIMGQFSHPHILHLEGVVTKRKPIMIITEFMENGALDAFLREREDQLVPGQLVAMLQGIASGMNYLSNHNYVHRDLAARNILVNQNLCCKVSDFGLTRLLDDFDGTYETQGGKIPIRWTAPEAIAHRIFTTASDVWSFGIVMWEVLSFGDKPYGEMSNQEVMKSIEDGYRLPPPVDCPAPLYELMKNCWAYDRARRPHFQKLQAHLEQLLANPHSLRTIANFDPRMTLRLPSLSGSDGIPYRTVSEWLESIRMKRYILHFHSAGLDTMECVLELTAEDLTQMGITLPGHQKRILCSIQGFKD

RIPK4 = target: T4, RIPK4 (Homo sapiens, UniProt P57078)
T4 sequence (P57078 1-832): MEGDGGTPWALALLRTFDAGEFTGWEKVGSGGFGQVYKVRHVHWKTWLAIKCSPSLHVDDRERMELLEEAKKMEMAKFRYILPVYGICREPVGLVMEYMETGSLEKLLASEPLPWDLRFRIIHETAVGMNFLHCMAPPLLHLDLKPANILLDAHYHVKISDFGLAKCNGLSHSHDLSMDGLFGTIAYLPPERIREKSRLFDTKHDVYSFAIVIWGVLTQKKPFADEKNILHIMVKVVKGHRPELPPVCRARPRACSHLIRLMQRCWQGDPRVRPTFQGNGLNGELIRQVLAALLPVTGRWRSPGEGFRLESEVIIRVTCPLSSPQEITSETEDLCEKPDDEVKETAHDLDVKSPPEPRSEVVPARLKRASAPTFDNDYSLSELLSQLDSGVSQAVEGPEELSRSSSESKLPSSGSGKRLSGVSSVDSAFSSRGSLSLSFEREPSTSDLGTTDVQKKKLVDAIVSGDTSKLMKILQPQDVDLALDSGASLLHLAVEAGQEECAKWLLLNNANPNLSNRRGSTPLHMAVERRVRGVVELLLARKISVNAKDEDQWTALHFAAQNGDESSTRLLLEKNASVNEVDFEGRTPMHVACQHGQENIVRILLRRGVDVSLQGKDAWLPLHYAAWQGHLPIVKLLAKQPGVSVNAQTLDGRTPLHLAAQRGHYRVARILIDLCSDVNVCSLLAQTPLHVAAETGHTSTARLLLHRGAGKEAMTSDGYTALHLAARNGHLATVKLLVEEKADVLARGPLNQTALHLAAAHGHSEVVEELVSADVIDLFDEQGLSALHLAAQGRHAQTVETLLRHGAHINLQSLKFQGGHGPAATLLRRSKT

[2] = read-out: Niraparib (MK-4827) / %Ctrl @ 10000nM
[3] = read-out: Olaparib / %Ctrl @ 10000nM
[4] = read-out: Rucaparib / %Ctrl @ 10000nM, binding competition, % of control
[5] = read-out: Talazoparib (BMN 673) / %Ctrl @ 10000nM

T1 sequence (P00519 whole entry F317I): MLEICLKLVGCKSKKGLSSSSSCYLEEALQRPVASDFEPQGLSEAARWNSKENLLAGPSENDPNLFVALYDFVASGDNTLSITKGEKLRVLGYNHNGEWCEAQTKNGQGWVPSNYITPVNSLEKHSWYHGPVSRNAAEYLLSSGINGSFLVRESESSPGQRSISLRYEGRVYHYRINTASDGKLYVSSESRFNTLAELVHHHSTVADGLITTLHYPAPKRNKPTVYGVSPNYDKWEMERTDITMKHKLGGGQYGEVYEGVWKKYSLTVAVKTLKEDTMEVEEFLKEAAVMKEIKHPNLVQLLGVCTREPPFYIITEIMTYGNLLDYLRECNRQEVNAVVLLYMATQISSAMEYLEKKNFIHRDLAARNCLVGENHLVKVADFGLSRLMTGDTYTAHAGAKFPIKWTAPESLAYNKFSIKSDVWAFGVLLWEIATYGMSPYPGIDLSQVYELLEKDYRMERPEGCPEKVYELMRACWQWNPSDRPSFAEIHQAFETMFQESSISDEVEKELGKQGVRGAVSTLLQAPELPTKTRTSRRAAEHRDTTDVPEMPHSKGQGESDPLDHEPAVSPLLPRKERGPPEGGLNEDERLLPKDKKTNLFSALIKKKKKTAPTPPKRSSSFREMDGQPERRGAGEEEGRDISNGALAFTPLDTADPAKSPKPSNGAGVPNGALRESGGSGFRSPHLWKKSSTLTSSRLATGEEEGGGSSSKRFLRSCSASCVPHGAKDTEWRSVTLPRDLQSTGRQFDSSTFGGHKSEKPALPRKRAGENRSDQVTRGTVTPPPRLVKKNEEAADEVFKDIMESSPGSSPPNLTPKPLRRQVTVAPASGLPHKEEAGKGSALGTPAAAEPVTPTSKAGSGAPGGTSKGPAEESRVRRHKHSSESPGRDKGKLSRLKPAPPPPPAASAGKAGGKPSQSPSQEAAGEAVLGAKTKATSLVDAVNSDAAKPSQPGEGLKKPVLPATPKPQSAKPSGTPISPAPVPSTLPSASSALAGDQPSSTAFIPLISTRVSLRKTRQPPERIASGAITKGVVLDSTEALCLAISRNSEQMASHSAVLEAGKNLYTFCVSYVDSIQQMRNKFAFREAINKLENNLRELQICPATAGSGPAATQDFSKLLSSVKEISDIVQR
Sequence of CIT (O14578 whole entry): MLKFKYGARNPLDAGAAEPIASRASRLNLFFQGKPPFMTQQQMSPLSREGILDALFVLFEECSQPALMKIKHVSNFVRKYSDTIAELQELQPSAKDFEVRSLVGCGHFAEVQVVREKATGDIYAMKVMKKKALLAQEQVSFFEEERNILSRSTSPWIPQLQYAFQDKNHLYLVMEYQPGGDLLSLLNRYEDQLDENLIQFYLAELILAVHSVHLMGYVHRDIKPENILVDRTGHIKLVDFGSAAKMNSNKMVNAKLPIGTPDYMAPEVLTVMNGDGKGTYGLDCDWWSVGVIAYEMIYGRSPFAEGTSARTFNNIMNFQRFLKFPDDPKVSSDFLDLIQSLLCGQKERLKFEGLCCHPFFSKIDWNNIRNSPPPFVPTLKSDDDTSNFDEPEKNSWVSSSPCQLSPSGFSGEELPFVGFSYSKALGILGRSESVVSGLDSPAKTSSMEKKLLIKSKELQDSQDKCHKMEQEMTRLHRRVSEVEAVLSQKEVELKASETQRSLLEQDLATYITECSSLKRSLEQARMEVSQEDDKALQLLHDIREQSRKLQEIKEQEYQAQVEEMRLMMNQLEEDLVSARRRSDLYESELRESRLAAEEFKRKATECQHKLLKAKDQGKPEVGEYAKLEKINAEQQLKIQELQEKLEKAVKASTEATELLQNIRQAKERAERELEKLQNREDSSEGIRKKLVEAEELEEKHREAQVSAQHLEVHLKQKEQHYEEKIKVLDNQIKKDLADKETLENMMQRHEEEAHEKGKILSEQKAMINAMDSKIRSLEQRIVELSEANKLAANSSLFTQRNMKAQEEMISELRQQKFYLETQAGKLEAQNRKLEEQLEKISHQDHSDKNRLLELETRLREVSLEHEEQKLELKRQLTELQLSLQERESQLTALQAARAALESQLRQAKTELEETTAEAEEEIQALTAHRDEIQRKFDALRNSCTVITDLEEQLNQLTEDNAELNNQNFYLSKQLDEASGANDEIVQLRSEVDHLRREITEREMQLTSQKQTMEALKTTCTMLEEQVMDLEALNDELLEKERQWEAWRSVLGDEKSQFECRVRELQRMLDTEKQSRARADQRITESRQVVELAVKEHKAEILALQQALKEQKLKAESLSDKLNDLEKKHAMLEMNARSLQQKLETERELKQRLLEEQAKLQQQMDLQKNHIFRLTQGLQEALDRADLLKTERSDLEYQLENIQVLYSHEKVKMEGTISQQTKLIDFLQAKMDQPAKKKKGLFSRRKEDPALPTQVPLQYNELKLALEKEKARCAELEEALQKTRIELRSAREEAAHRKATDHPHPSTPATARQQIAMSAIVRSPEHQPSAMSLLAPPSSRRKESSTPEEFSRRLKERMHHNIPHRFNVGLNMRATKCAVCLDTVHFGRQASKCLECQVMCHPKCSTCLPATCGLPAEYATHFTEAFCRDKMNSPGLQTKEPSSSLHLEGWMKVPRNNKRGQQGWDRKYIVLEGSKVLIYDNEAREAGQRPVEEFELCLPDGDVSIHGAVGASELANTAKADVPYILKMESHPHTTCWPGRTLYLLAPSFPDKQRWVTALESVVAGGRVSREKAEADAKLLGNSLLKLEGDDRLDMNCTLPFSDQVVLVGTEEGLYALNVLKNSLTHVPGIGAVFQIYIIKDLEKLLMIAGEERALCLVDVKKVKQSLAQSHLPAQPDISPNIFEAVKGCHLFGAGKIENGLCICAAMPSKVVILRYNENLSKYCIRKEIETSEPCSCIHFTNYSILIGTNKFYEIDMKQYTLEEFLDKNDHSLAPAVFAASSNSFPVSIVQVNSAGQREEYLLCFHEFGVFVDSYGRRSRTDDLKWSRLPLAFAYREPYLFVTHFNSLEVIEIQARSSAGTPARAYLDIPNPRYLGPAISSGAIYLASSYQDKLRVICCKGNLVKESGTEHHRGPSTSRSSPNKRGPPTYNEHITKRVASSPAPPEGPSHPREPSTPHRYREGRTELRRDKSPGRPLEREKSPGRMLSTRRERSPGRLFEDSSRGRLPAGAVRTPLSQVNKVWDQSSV

SMILES: NC(=O)c1cccc2cn(-c3ccc([C@@H]4CCCNC4)cc3)nc12 [Niraparib]
- percent of control binding at 10 µM [1, 2]: 86%
- percent of control binding at 10 µM (DYRK2; [2]): 54%
- percent of control binding at 10 µM (CIT; [2]): 10%
- percent of control binding at 10 µM (EPHA1; [2]): 86%
- percent of control binding at 10 µM (RIPK4; [2]): 81%

- percent of control binding at 10 µM [1, 3]: 66%
- percent of control binding at 10 µM (DYRK2; [3]): 99%
- percent of control binding at 10 µM (CIT; [3]): 87%
- percent of control binding at 10 µM (EPHA1; [3]): 92%
- percent of control binding at 10 µM (RIPK4; [3]): 81%
SMILES: O=C(c1cc(Cc2n[nH]c(=O)c3ccccc23)ccc1F)N1CCN(C(=O)C2CC2)CC1 [Olaparib]

- percent of control binding at 10 µM [1, 4]: 71%
- percent of control binding at 10 µM (DYRK2; [4]): 38%
- percent of control binding at 10 µM (CIT; [4]): 4.8%
- percent of control binding at 10 µM (EPHA1; [4]): 99%
- percent of control binding at 10 µM (RIPK4; [4]): 75%
SMILES: CNCc1ccc(-c2[nH]c3cc(F)cc4c3c2CCNC4=O)cc1 [Rucaparib]

- percent of control binding at 10 µM [1, 5]: 96%
- percent of control binding at 10 µM (DYRK2; [5]): 86%
- percent of control binding at 10 µM (CIT; [5]): 98%
- percent of control binding at 10 µM (EPHA1; [5]): 98%
- percent of control binding at 10 µM (RIPK4; [5]): 69%
SMILES: Cn1ncnc1[C@H]1c2n[nH]c(=O)c3cc(F)cc(c23)N[C@@H]1c1ccc(F)cc1 [Talazoparib]
